Reference: paper PMC3694297, “Establishment of a simplified in vitro porcine blood–brain barrier model with high transendothelial electrical resistance” (Brain Research, 2013)

What was measured:
[1] = tested on: porcine brain endothelial cells (PBECs); conditions: apical to basal, P.1 PBEC; line through passive compounds R^2=0.96
Procedure: Permeability assays were performed on cell monolayers with TEER >500 Ω cm^2. […] At t=5 min, the inserts were transferred to the next well containing donor buffer. This procedure was repeated for all inserts at t=15 min and t=30 min. At the end of the experiment, samples were taken from each insert and well to scintillation vials. OptiPhase HiSafe 2 scintillation liquid was added to each vial and radioactivity was counted using a Canberra Packard Tricarb 1900 TR Liquid Scintillation Analyser.
Cleared volume was calculated using the following equation and plotted as a function of time:(1) Clearedvolume(μl)=MR(dpm)/CD(dpm/μl) where is the MR=amount of radio-labelled compound in the receiver compartment, dpm=disintegrations per minute, CD=concentration of the compound in the donor compartment.
All dpm values were corrected for background dpm. The slope of the clearance curve was obtained by linear regression and represents the PS (i.e. permeability × surface area) product. Apparent permeability (Papp, cm/s) was calculated using the following equation:(2) Papp(cm/s)=PSproduct(cm^3/s)/surfaceareaoftheinsert(cm^2)
The apparent permeability Papp was calculated according to Eq. (2) and plotted against the calculated Log Poctanol as a measure of lipophilicity of the compound.

[2] = tested on: cEND (an immortalised mouse brain endothelial cell line); design: method as in Förster et al. (2005); conditions: cEND cells treated with hydrocortisone; ref Förster et al. (2005); cited from earlier work
[3] = tested on: hCMEC/D3, immortalised human brain microvascular endothelial cells; design: method as in Förster et al., 2008; conditions: hCMEC/D3 treated with hydrocortisone; ref Förster et al., 2008; cited from earlier work

Row | SMILES | Papp relative to the line of Papp vs. calculated Log Poctanol [1] | also measured
1 | CC(C)C[C@H](N)C(=O)O [Leucine, L-leucine] | clear outliers above the line | –
2 | Cn1c(=O)c2c(ncn2C)n(C)c1=O [caffeine] | clear outliers above the line | –
3 | N[C@@H](CCC(=O)O)C(=O)O [glutamate, L-glutamic acid] | clear outliers below the line | –
4 | C[C@]12CCC(=O)C=C1CC[C@@H]1[C@@H]2[C@@H](O)C[C@@]2(C)[C@H]1CC[C@]2(O)C(=O)CO [hydrocortisone] | – | increase in TEER [2]: threefold; increase in TEER [3]: three-fold; increase in expression of occludin and claudin-5 [3]: over twofold
5 | C=CCN1CC[C@]23c4c5ccc(O)c4O[C@H]2C(=O)CC[C@@]3(O)[C@H]1C5 [naloxone] | linear function of calculated Log Poctanol | –
6 | CC(C)NCC(O)COc1cccc2ccccc12 (stereo not drawn) [propranolol] | linear function of calculated Log Poctanol | –
7 | CC[C@]1(O)C[C@@H]2CN(CCc3c([nH]c4ccccc34)[C@@](C(=O)OC)(c3cc4c(cc3OC)N(C)[C@H]3[C@@](O)(C(=O)OC)[C@H](OC(C)=O)[C@]5(CC)C=CCN6CC[C@]43[C@@H]65)C2)C1 [vinblastine] | clear outliers below the line | –
